In patent US20250281478A1, “METHODS FOR PREVENTING OR TREATING KIDNEY DISEASES” (JEAMOON BEIJING CO., LTD., priority 2022, published 2025):

Legend:
Assay type in all cases: in vivo, C57BL/6N mice
[1] = system: mice with adenine-induced renal failure; assay: Renal fibrosis by Masson's trichrome staining in adenine-induced renal failure mice; details: TAK875 30 mg/kg p.o. QD for 2 weeks; 3 weeks of modeling; FIG. 6
Method: Mice were modeled and administered drugs as described in Example 3. After two weeks of drug administration, the mice were euthanized, and their kidneys were fixed, sectioned, stained with Masson's trichrome, and analyzed.
Whole-slide scanning was performed using a fully automated digital pathology scanner KF-PRO-120 from Ningbo Jiangfeng Bioinformatics Technology Co., Ltd. Masson-stained images were analyzed using the Area Quantification module in HALO software. The blue staining of collagen fibers was used as the unified criterion for positivity. The images were analyzed, and the percentage of blue-stained collagen fibers in the tissue was calculated.
Statistical analysis was conducted using GraphPad Prism 8.0. Continuous data for each group were expressed as mean+SD. One-way ANOVA was used for multi-group comparisons, and Student's t-test was used for comparisons between two groups. A p-value<0.05 was considered statistically significant. For categorical data, chi-square tests were used for comparisons among groups, and a p-value<0.05 was considered statistically significant.

[2] = system: mice with sustained adenine-induced renal failure; assay: Glomerular filtration rate in mice with sustained adenine-induced renal failure (TGFR system); details: TAK875 30 mg/kg p.o. QD for 2 weeks; 3 weeks continuous 0.25% adenine diet; FIG. 4
Method: (§1) • a) Control group: Fed with adenine-free feed; other procedures were the same as those in the model group. • b) Model group: Fed with feed containing 0.25% adenine for modelling. • c) LY-10 mg/kg group: Model+LY2922470 (10 mg/kg, p.o., QD). • d) LY-30 mg/kg group: Model+LY2922470 (30 mg/kg, p.o., QD). • e) LY-60 mg/kg group: Model+LY2922470 (60 mg/kg, p.o., QD). • f) TAK875 group: Model+TAK875 (30 mg/kg, p.o., QD).
(§2) Except for the control group, all other mice were fed with a diet containing 0.25% adenine for modelling. The control group was fed with a normal diet. All mice were allowed free access to food. One week after modeling, each group of mice was administered the respective treatment via oral gavage once daily in the afternoon for two consecutive weeks. The control group and the model group received vehicle under a same condition. The adenine-containing diet was continuously administered for modeling throughout the treatment period until the end of the experiment. The physical condition of the mice was monitored, and body weight was measured and recorded weekly. Blood samples were collected from the orbital venous plexus at 1 week (post-modeling) and 3 weeks (after 2 weeks of treatment). Serum was separated for the measurement of serum creatinine (CRE) and blood urea nitrogen (BUN). At the end of the two-week treatment, renal function of each group was assessed using a TGFR renal function monitoring and smart analysis system. After testing, tissues were collected from the mice to confirm the efficacy of the treatment.
(§3) Statistical analyses were performed using GraphPad Prism 8.0 software. Continuous data of each group were expressed as mean+SD. One-way ANOVA was used for multi-group comparisons, and Student's t-test was used for comparisons between two groups. A p-value<0.05 was considered statistically significant. For categorical data, chi-square tests were used to compare between groups, with p<0.05 indicating a statistically significant difference.
One week later, LY2922470 or TAK875 was administrated for treatment. […]

[3] = system: mice with adenine-induced renal failure; assay: Serum creatinine (CREA) in adenine-induced renal failure mice
Method: as §1, §2, §3
(§4) Mice were fed a 0.25% adenine-containing diet. After one week, the mice were treated with LY2922470 or TAK875. During the treatment period, the adenine-containing diet was continued for modeling. After three weeks of adenine feeding (i.e., two weeks of drug administration), blood samples were collected from the mice, and serum was isolated for CREA and BUN measurements.

[4] = system: mice with adenine-induced renal failure; assay: Survival of mice with adenine-induced renal failure; details: TAK875 30 mg/kg p.o. QD
Method: • 1. Experimental Animals: C57BL/6N, 8 weeks old, SPF grade, male. • 2. Experimental Drugs: • LY2922470 (Shanghai Taoshu Biotechnology Co., Ltd.) • TAK875 (Shanghai Taoshu Biotechnology Co., Ltd.)
1) Preparation of TAK875: A total of 27 mg of TAK875 powder was accurately weighed using an analytical balance and dissolved in 9 mL of 0.8% CMC-Na solution. The mixture was sonicated for 5 minutes to form a 3 mg/mL white suspension. The suspension was stored at 4° C. for later use.
2) Preparation of LY2922470: A total of 80 mg of LY2922470 yellow crystals was added to 200 μL of DMSO to form a clear yellow solution. The solution was gradually added in batches to 10 mL of 0.8% CMC-Na solution. After heating and sonication for 5 hours, an 8 mg/mL white suspension of LY2922470 was obtained. The suspension was stored at 4° C. for later use.
Eight-week-old male C57BL/6N mice were acclimatized for one week and then randomly divided into six groups. Except for the control group, all mice were fed a 0.25% adenine-containing diet for modelling. The control group received a normal diet. The mice had free access to food. One week after model induction, mice in each group were orally administered the corresponding drug once daily in the afternoon, according to their group assignment. The control group and the model group received vehicle under a same condition. During the treatment period, the adenine-containing diet was continued. Mouse survival was monitored until the end of the experiment.

[5] = system: mice with adenine-induced renal failure; assay: Blood urea nitrogen (BUN) in adenine-induced renal failure mice
Method: as §1, §2, §3, §4

[6] = TAK875 30 mg/kg p.o. QD for 2 weeks
[7] = TAK875 30 mg/kg p.o. QD, mean ± SD

Compound: Cc1cc(OCCCS(C)(=O)=O)cc(C)c1-c1cccc(COc2ccc3c(c2)OC[C@H]3CC(=O)O)c1 [TAK875]
- Degree of renal fibrosis compared to the model group (Masson staining) [1]: not significantly reduced
- GFR compared with the model group [2]: increased
- CREA level compared with the model group [3, 6]: did not significantly reduce
- CREA after modeling for 3 weeks (after drug administration for 2 weeks) [3, 7]: 137.68 ± 30.23 µmol/L
- Survival Rate (%) ([4]; started 1 week after start of continued 0.25% adenine diet, end of experiment, 30 mg/kg): 46.2%
- Count after Drug Administration (surviving mice) ([4]; 13 at enrollment): 6
- BUN level compared with the model group [5, 6]: did not significantly reduce
- BUN after modeling for 3 weeks (after drug administration for 2 weeks) [5, 7]: 25.07 ± 4.91 mmol/L
- BUN after modeling for 1 week (before drug administration) ([5]; baseline of the TAK875 30 mg/kg group, mean ± SD): 11.25 ± 3.98 mmol/L
